SMILES strings stand for the structures. “Also recorded” adds a separate entry of the source. Where two headings read alike, the source gives them in different places.

One data set concerns adjuvant arthritis. In words: activity against adjuvant arthritis in the rat. Format: in vivo, male Chbb:THOM-rats. Conditions: for ED50: Rattus norvegicus, 504 h; for antiphlogistic activity: in words, compared with compound A. The procedure: 0.1 ml of a 1% suspension of M. butyricum in viscous paraffin oil was administered by subplantar injection to the right hind paw of male Chbb:THOM-rats having an average body weight of 210 gm at the beginning of the test. […]
Using a linear regression analysis, an ED50 with the confidence limits according to FIELLER [Quart. J. Pharm. Pharmacol. 17, 117 (1944)] was calculated as the dosage which reduces the swelling of the paws by 50% in comparison to the control animals.

The nature of data set [1]: ulcerogenic effect on the stomach of the rat. Format: in vivo, male Chbb:THOM-rats. Conditions: rat, in vivo; for selectivity ratio: po, Table IV, ED50 ulcer / ED50 adjuvant arthritis prim. reaction, read-out: Therapeutic Ratio I/II; for TD50: Table II, daily oral administration for 3 days, limits in parentheses, Litchfield and Wilcoxon, read-out: Ulcerogenic activity in the stomach ED50. The procedure: (§1) The test was carried out on male Chbb:THOM-rats with an average body weight of 130 gm at the beginning of the study. The animals were fed with a standard diet (Altromin-R) ad libitum. The test compounds were administered perorally as a trituration in 1% methyl cellulose (1 ml/100 gm animal) by means of an esophageal sound once a day on three successive days. Four hours after the last administration the animals were killed. The stomachs were dissected and the mucosa was washed with water for subsequent macroscopic evaluation. […] Therap. 96, 99 (1949)].

For a further data set, the system named is stomach of the rat. Description: ulcerogenic effect on the stomach of the rat. It is filed as in vivo, male Chbb:THOM-rats. Here is the method: as §1
Data set [2] can be described thus: acute toxicity in the mouse. Conditions: in vivo; for selectivity ratio: po, Table V, LD50 / ED50 adjuvant arthritis prim. reaction, read-out: Therapeutic Ratio I/II (converted); for LD50 at 336 h: Table III, oral administration, mouse, deaths within 14 days, limits in parentheses. Format: in vivo, male and female Chbb: NMRI (SPF)-mice. Here is the method: (§2) The acute toxicity was determined on male and female Chbb: NMRI (SPF)-mice (sex ratio of each dosage group 1:1) having an average body weight of 20 gm. The test compound was administered perorally as a trituration in 1% of methyl cellulose (0.2 ml/10 gm animal) by means of an esophageal sound.
(§3) The calculation of the LD50 -values was effected according to the method of LITCHFIELD and WILCOXON, based on the percentage of animals which died within 14 days after administration of each dose.

Another data set relates to mouse. Description: acute toxicity in the mouse. It is filed as in vivo, male and female Chbb: NMRI (SPF)-mice. Conditions: compared with the other compounds; see Table V. Here is the method: as §2, §3
Data set [3] has as its system pain caused by inflammation (yeast edema). Description: activity against the pain caused by inflammation (Randall and Selitto). Conditions: for ED50: po, 1.5 h, read-out: Randall-Selitto ED50. Format: in vivo, male Chbb:THOM-rats. The procedure:
The activity against the pain caused by inflammation was tested according to Randall and Selitto [Arch. Int. Pharmacodyn. 111, 409 (1957] in male Chbb:THOM-rats, having a body weight of 100 to 130 gm. The test compounds were administered perorally 90 minutes after the induction of the yeast edema by means of an esophageal tube. After further 90 minutes the pain threshold was determined in the animals treated with the test compound and in the control animals treated only with the vehicle methyl cellulose, and by using a linear regression analysis an ED50 was calculated with the confidence limits according to FIELLER, the ED50 being the dose which increased the pain threshold by 50%.

[4] abbreviates: Table I, daily oral administration, 21 days, dose per day, left hind paw swelling reduced by 50%, confidence limits according to FIELLER in parentheses, read-out: Activity against the secondary reaction ED50.
[5] abbreviates: Table I, daily oral administration, 21 days, dose per day, right hind paw swelling reduced by 50%, confidence limits according to FIELLER in parentheses, read-out: Activity against the primary reaction ED50.

`Cc1cnc(NC(=O)C2=C(O)c3ccccc3S(=O)(=O)N2C)s1` [Compound A, 4-Hydroxy-2-methyl-N-(5-methyl-2-thiazolyl)-2H-1,2-benzothiazine-3-carboxamide-1,1-dioxide]: the ED50 – broadly, the dose at which the effect has come halfway, by size or by number of responders – was found to be 0.12 mg/kg in the data set on adjuvant arthritis (setting [4]); 0.28 mg/kg in the data set with adjuvant arthritis (setting [5]); 5.6 mg/kg in data set [3] (Table VI, peroral, rat, dose which increased the pain threshold by 50%). For the same compound, the “effect on the inflammatory primary reactions, relative to compound C” value with adjuvant arthritis (compared with compound C) was “three times greater”. In the data set with adjuvant arthritis (contralateral paw, compared with compound C), the “effect on the specific secondary reactions, relative to compound C” value is “about 5 times”. Also, the selectivity ratio in data set [1] is 8.25; in data set [2], 1680. Moreover, the TD50 in data set [1] was found to be 2.31 mg/kg. Further, the “therapeutic ratio relative to compound C” value with stomach of the rat (Table IV ratio, times greater than that of compound C) is listed as “about 7 times”. Further, the stomach compatibility result with stomach of the rat (in vivo) is given as “significantly better”. Moreover, the “therapeutic ratio relative to compound B” value with stomach of the rat (times greater than that of compound B) is listed as 10 times. Further, the LD50 (commonly the dose expected to kill half of the subjects tested) at 336 h in data set [2] turned out to be 470 mg/kg. Further, the “difference between the antiphlogistically active doses and the toxic doses” value in the data set with mouse is “distinctly higher than in the other compounds”. The “effectiveness against the pain caused by inflammation” value in data set [3] (rat, compared with compound C) was “increased effectiveness”.
Regarding `Cc1csc(NC(=O)C2=C(O)c3ccccc3S(=O)(=O)N2C)n1` [Compound B, 4-Hydroxy-2-methyl-N-(4-methyl-2-thiazolyl)-2H-1,2-benzothiazine-3-carboxamide-1,1-dioxide], the ED50 in the data set with adjuvant arthritis (setting [4]) was determined as 0.21 mg/kg. The ED50 with adjuvant arthritis (setting [5]) is 0.37 mg/kg. In the data set with adjuvant arthritis, the antiphlogistic activity entry was “does not completely reach the antiphlogistic activity of compound A”. In data set [1], the selectivity ratio is 0.84 and the TD50 turned out to be 0.31 mg/kg. Further, the “therapeutic ratio, in words” value with stomach of the rat (Table IV ratio, compared with compound C) is given as “still smaller than that of compound C”. In the data set with stomach of the rat (stomach), the “ulcerogenic activity, in words” value was “strong ulcerogenic effect; also recorded: relatively more pronounced than its antiphlogistic activity”. Moreover, the “ulcerogenic effect on the stomach, relative to compound A” value with stomach of the rat (times stronger than that of compound A) is recorded as “more than 6 times”. In data set [2], the selectivity ratio was 1320 and the median lethal dose (LD50) at 336 h amounted to 488 mg/kg.
Turning to `CN1C(C(=O)Nc2nccs2)=C(O)c2ccccc2S1(=O)=O` [C, 4-Hydroxy-2-methyl-N-(2thiazolyl)-2H-1,2-benzothiazine-3-carboxamide-1,1-dioxide], the ED50 in the data set on adjuvant arthritis (po, read-out: Activity against the primary reaction ED50) turned out to be 0.77 mg/kg; with adjuvant arthritis (po, read-out: Activity against the secondary reaction ED50), 0.6 mg/kg; in data set [3] (in Rattus norvegicus) it was 9.2 mg/kg. In addition, the antiphlogistic activity entry in the data set with adjuvant arthritis is listed as “weaker antiphlogistic activity”. Also, the results for the selectivity ratio in data set [1] and in data set [2] were 1.23 and 12600, respectively. In data set [1], the TD50 came to 0.95 mg/kg. Moreover, in the data set on stomach of the rat (in words, compared with compound A), the “ulcerogenic effect on the stomach, relative to compound A” value is recorded as “two times stronger”. The LD50 at 336 h in data set [2] is 466 mg/kg.

The values above are taken from patent US4233299A, “4-Hydroxy-2H-1,2-benzothiazine-3-carboxamide-1,1-dioxides and salts thereof” (priority 1977, dated 1980).
